Measurements reported in ChEMBL document CHEMBL1201862, “PubChem BioAssay data set” (2004).
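Results reflect a 48-hour exposure of cells in 96-well plates to compound at five concentrations. Abbreviation: GI50, concentration required for 50% inhibition of growth.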 Active and inactive are the calls of the source. Cut-off read from the data, not from the text of the source: active = GI50 up to about 1.1 µM and inactive = higher.

Legend:
Test in all cases: growth of human tumour cells (NCI), 48 h
PC-3 = system: PC-3
MDA-MB-435 = system: MDA-MB-435
SR = system: SR
SK-MEL-28 = system: SK-MEL-28
COLO 205 = system: COLO 205
SNB-75 = system: SNB-75
UO-31 = system: UO-31
MOLT-4 = system: MOLT-4
OVCAR-5 = system: OVCAR-5
SN12C = system: SN12C
UACC-257 = system: UACC-257
OVCAR-4 = system: OVCAR-4
ACHN = system: ACHN
OVCAR-8 = system: OVCAR-8
SW-620 = system: SW-620
HCC 2998 = system: HCC 2998
TK-10 = system: TK-10
T47D = system: T47D
A549 = system: A549
SF-268 = system: SF-268
MDA-MB-231 = system: MDA-MB-231
K562 = system: K562
HCT-116 = system: HCT-116
EKVX = system: EKVX
NCI-H23 = system: NCI-H23
CCRF-CEM = system: CCRF-CEM
U-251 = system: U-251
CAKI-1 = system: CAKI-1
LOX IMVI = system: LOX IMVI
MCF7 = system: MCF7
786-0 = system: 786-0
UACC-62 = system: UACC-62
A498 = system: A498
OVCAR-3 = system: OVCAR-3
RPMI-8226 = system: RPMI-8226
M14 = system: M14
DU-145 = system: DU-145
NCI/ADR-RES = system: NCI/ADR-RES
KM12 = system: KM12
MDA-N = system: MDA-N
SF-539 = system: SF-539
BT-549 = system: BT-549
RXF 393 = system: RXF 393
SF-295 = system: SF-295
NCI-H522 = system: NCI-H522
IGROV-1 = system: IGROV-1
SK-MEL-2 = system: SK-MEL-2
SNB-19 = system: SNB-19
HT-29 = system: HT-29
Malme-3M = system: Malme-3M
SK-MEL-5 = system: SK-MEL-5
HCT-15 = system: HCT-15
HOP-92 = system: HOP-92
Hs-578T = system: Hs-578T
NCI-H460 = system: NCI-H460
NCI-H226 = system: NCI-H226
HL-60 = system: HL-60
HOP-62 = system: HOP-62
SK-OV-3 = system: SK-OV-3

In the case of `NNC(=O)CSc1nc2ccccc2c(=O)n1N`, the GI50 (PC-3) is reported as > 100 µM (inactive), the GI50 (MDA-MB-435) is reported as > 100 µM (inactive) and the GI50 (SR) is reported as > 100 µM (inactive). For the same compound, the GI50 (SK-MEL-28) was > 100 µM (inactive), the GI50 (COLO 205) was > 100 µM (inactive) and the GI50 (SNB-75) was 13.5 µM (inactive). The GI50 (UO-31) was > 100 µM (inactive), the GI50 (MOLT-4) was > 100 µM (inactive) and the GI50 (OVCAR-5) was > 100 µM (inactive). For the same compound, the GI50 (SN12C) was 37.8 µM (inactive), the GI50 (UACC-257) was > 100 µM (inactive) and the GI50 (OVCAR-4) was > 100 µM (inactive). The GI50 (ACHN) was 26.4 µM (inactive), the GI50 (OVCAR-8) was 31.9 µM (inactive) and the GI50 (SW-620) was > 100 µM (inactive). The GI50 (HCC 2998) was > 100 µM (inactive), the GI50 (TK-10) was 16.3 µM (inactive) and the GI50 (T47D) was > 100 µM (inactive). For the same compound, the GI50 (A549) was > 100 µM (inactive), the GI50 (SF-268) was 39.9 µM (inactive) and the GI50 (MDA-MB-231) was 17.3 µM (inactive). The GI50 (K562) was > 100 µM (inactive), the GI50 (HCT-116) was 31.6 µM (inactive) and the GI50 (EKVX) was 53.8 µM (inactive). For the same compound, the GI50 (NCI-H23) was 29.8 µM (inactive), the GI50 (CCRF-CEM) was > 100 µM (inactive) and the GI50 (U-251) was 19.1 µM (inactive). The GI50 (CAKI-1) was 32.8 µM (inactive), the GI50 (LOX IMVI) was 43.4 µM (inactive) and the GI50 (MCF7) was 91.8 µM (inactive). For the same compound, the GI50 (786-0) was 19 µM (inactive), the GI50 (UACC-62) was 27.6 µM (inactive) and the GI50 (A498) was > 100 µM (inactive). For the same compound, the GI50 (OVCAR-3) was > 100 µM (inactive), the GI50 (RPMI-8226) was > 100 µM (inactive) and the GI50 (M14) was > 100 µM (inactive). For the same compound, the GI50 (DU-145) was > 100 µM (inactive), the GI50 (NCI/ADR-RES) was > 100 µM (inactive) and the GI50 (KM12) was > 100 µM (inactive). For the same compound, the GI50 (MDA-N) was > 100 µM (inactive), the GI50 (SF-539) was 31 µM (inactive) and the GI50 (BT-549) was 42.1 µM (inactive). The GI50 (RXF 393) was 31.7 µM (inactive), the GI50 (SF-295) was 31.4 µM (inactive) and the GI50 (NCI-H522) was 58.7 µM (inactive). For the same compound, the GI50 (IGROV-1) was > 100 µM (inactive), the GI50 (SK-MEL-2) was 17.6 µM (inactive) and the GI50 (SNB-19) was 14.9 µM (inactive). The GI50 (HT-29) was 22.2 µM (inactive), the GI50 (Malme-3M) was 46.7 µM (inactive) and the GI50 (SK-MEL-5) was > 100 µM (inactive). The GI50 (HCT-15) was over 100 µM, the GI50 (HOP-92) was 22.5 µM (inactive) and the GI50 (Hs-578T) was 29.7 µM (inactive). For the same compound, the GI50 (NCI-H460) was 57.1 µM (inactive) and the GI50 (NCI-H226) was > 100 µM (inactive).
For `NC(=O)NC(=O)c1cccc(NC(=O)CCl)c1`, the GI50 (PC-3) was 1.08 µM (active), the GI50 (MDA-MB-435) was 0.518 µM (active) and the GI50 (SR) was 0.124 µM (active). The GI50 (SK-MEL-28) was 7 µM (inactive), the GI50 (HL-60) was 0.569 µM (active) and the GI50 (COLO 205) was 0.394 µM (active). For the same compound, the GI50 (SNB-75) was 1.98 µM (inactive), the GI50 (UO-31) was 0.168 µM (active) and the GI50 (MOLT-4) was 1.11 µM (active). For the same compound, the GI50 (OVCAR-5) was 1.65 µM (inactive), the GI50 (SN12C) was 1.43 µM (inactive) and the GI50 (UACC-257) was 1.19 µM (inactive). For the same compound, the GI50 (OVCAR-4) was 2.19 µM (inactive), the GI50 (ACHN) was 2.56 µM (inactive) and the GI50 (OVCAR-8) was 2.22 µM (inactive). The GI50 (SW-620) was 0.621 µM (active), the GI50 (HCC 2998) was 0.764 µM (active) and the GI50 (TK-10) was 1.35 µM (inactive). The GI50 (T47D) was 2.18 µM (inactive), the GI50 (SF-268) was 1.91 µM (inactive) and the GI50 (MDA-MB-231) was 2.79 µM (inactive). For the same compound, the GI50 (K562) was 0.714 µM (active), the GI50 (HCT-116) was 0.392 µM (active) and the GI50 (EKVX) was 7.01 µM (inactive). The GI50 (NCI-H23) was 0.953 µM (active), the GI50 (CCRF-CEM) was 0.855 µM (active) and the GI50 (U-251) was 0.975 µM (active). The GI50 (CAKI-1) was 1.39 µM (inactive), the GI50 (LOX IMVI) was 0.465 µM (active) and the GI50 (MCF7) was 0.989 µM (active). For the same compound, the GI50 (786-0) was 1.06 µM (active), the GI50 (HOP-62) was 1.61 µM (inactive) and the GI50 (UACC-62) was 0.687 µM (active). For the same compound, the GI50 (A498) was 2.55 µM (inactive), the GI50 (OVCAR-3) was 0.223 µM (active) and the GI50 (RPMI-8226) was 1.18 µM (inactive). The GI50 (DU-145) was 1.36 µM (inactive), the GI50 (NCI/ADR-RES) was 1.65 µM (inactive) and the GI50 (KM12) was 0.579 µM (active). For the same compound, the GI50 (MDA-N) was 0.385 µM (active), the GI50 (SF-539) was 0.655 µM (active) and the GI50 (BT-549) was 1.41 µM (inactive). For the same compound, the GI50 (SK-OV-3) was 1.45 µM (inactive), the GI50 (RXF 393) was 1.04 µM (active) and the GI50 (SF-295) was 2.79 µM (inactive). The GI50 (NCI-H522) was 1.55 µM (inactive), the GI50 (IGROV-1) was 2.79 µM (inactive) and the GI50 (SK-MEL-2) was 2.38 µM (inactive). For the same compound, the GI50 (HT-29) was 0.883 µM (active), the GI50 (Malme-3M) was 5.22 µM (inactive) and the GI50 (SK-MEL-5) was 0.71 µM (active). The GI50 (HCT-15) was 0.948 µM, the GI50 (HOP-92) was 4.34 µM (inactive) and the GI50 (Hs-578T) was 3.9 µM (inactive). The GI50 (NCI-H460) was 1.5 µM (inactive) and the GI50 (NCI-H226) was 2.19 µM (inactive).
For `CC1OC(OC2C[C@](O)(C(=O)CBr)Cc3c(O)c4c(c(O)c32)C(=O)c2ccccc2C4=O)C(F)C(O)C1O` (stereo not given in full), the GI50 (PC-3) was 13.4 µM (inactive), the GI50 (MDA-MB-435) was 14.1 µM (inactive) and the GI50 (SR) was 0.426 µM (active). For the same compound, the GI50 (SK-MEL-28) was 23.8 µM (inactive), the GI50 (HL-60) was 0.838 µM (active) and the GI50 (COLO 205) was 9.73 µM (inactive). For the same compound, the GI50 (SNB-75) was 8.83 µM (inactive), the GI50 (UO-31) was 1.22 µM (inactive) and the GI50 (OVCAR-5) was 13.5 µM (inactive). The GI50 (SN12C) was 6.92 µM (inactive), the GI50 (UACC-257) was 13.3 µM (inactive) and the GI50 (OVCAR-4) was 23.6 µM (inactive). For the same compound, the GI50 (ACHN) was 1.53 µM (inactive), the GI50 (OVCAR-8) was 16.1 µM (inactive) and the GI50 (SW-620) was 2.69 µM (inactive). The GI50 (HCC 2998) was 36.3 µM (inactive), the GI50 (TK-10) was 20.3 µM (inactive) and the GI50 (T47D) was 5.35 µM (inactive). For the same compound, the GI50 (A549) was 4.67 µM (inactive), the GI50 (SF-268) was 13.5 µM (inactive) and the GI50 (MDA-MB-231) was 9.89 µM (inactive). The GI50 (K562) was 2.56 µM (inactive), the GI50 (HCT-116) was 5.83 µM (inactive) and the GI50 (EKVX) was 46.6 µM (inactive). For the same compound, the GI50 (NCI-H23) was 5.58 µM (inactive), the GI50 (CCRF-CEM) was 0.776 µM (active) and the GI50 (U-251) was 5.83 µM (inactive). For the same compound, the GI50 (CAKI-1) was 2.71 µM (inactive), the GI50 (LOX IMVI) was 10 µM (inactive) and the GI50 (MCF7) was 1.19 µM (inactive). The GI50 (786-0) was 3.66 µM (inactive), the GI50 (HOP-62) was 3.72 µM (inactive) and the GI50 (UACC-62) was 10.8 µM (inactive). For the same compound, the GI50 (A498) was 11.8 µM (inactive), the GI50 (OVCAR-3) was 13.9 µM (inactive) and the GI50 (RPMI-8226) was 1.46 µM (inactive). The GI50 (M14) was 7.14 µM (inactive), the GI50 (DU-145) was 5.28 µM (inactive) and the GI50 (NCI/ADR-RES) was 15.8 µM (inactive). For the same compound, the GI50 (KM12) was 19.6 µM (inactive), the GI50 (MDA-N) was 16.3 µM (inactive) and the GI50 (SF-539) was 4.54 µM (inactive). For the same compound, the GI50 (BT-549) was 24.7 µM (inactive), the GI50 (SK-OV-3) was 33.6 µM (inactive) and the GI50 (RXF 393) was 18.5 µM (inactive). The GI50 (SF-295) was 3.54 µM (inactive), the GI50 (NCI-H522) was 6.18 µM (inactive) and the GI50 (IGROV-1) was 7.89 µM (inactive). The GI50 (SK-MEL-2) was 29.6 µM (inactive), the GI50 (SNB-19) was 5.86 µM (inactive) and the GI50 (HT-29) was 12.1 µM (inactive). The GI50 (Malme-3M) was 3.66 µM (inactive), the GI50 (SK-MEL-5) was 8.95 µM (inactive) and the GI50 (HCT-15) was 5.86 µM. For the same compound, the GI50 (HOP-92) was 4.21 µM (inactive), the GI50 (Hs-578T) was 30 µM (inactive) and the GI50 (NCI-H460) was 0.783 µM (active). The GI50 (NCI-H226) was 12.7 µM (inactive).
